Experiments:
ticks = test: Arena test method for testing vermin-repellent substances; assay type: in vivo; settings: 1 to 100 μg/cm^2 on filter paper, video evaluation versus control and DEET
Procedure: Arena Test Method for Testing Vermin-repellent Substances
This method is carried out in titre plates having 6 wells with a cross-section of 5 cm each, using a computer-supported video system. Each well of the titre plate is lined with a circular filter paper or another suitable carrier material. The substance of formula I to be tested is dissolved in methanol, acetonitrile or another suitable solvent, with ultrasound treatment and heating being employed for poorly-soluble substances. In an amount of 1 to 100 μg/cm^2, the dissolved test substance is placed in the centre of the filter paper on a quadrant or circular area of ca. 2.4 cm^2 radius. 4 of the 6 wells are filled with different test substances or with the same test substance in different dilutions (e.g. 1, 3.2, 5, 10 and 20 μg/cm^2). The 5th well is treated with DEET (N,N-diethyl-m-toluamide) as standard substance. The 6th well is filled with the pure solvent and serves as a control. […] In this way, neutral and repellent substances are determined. At the same time, the duration of activity of the test substance is determined and compared with that of the standard. […] This frequency is evaluated statistically and thus quantitatively by the Willcoxon method in a comparison with the control and with the standard. […]

[1] = test system: Amblyomma hebraeum or variegatum (nymphs); test: Arena test in vitro against Amblyomma hebraeum or variegatum (nymphs); assay type: in vivo; settings: even up to a dilution of 3.2 μg/cm^2
Procedure: (§1) This method is carried out in titre plates having 6 wells with a cross-section of 5 cm each, using a computer-supported video system. Each well of the titre plate is lined with a circular filter paper or another suitable carrier material. The substance of formula I to be tested is dissolved in methanol, acetonitrile or another suitable solvent, with ultrasound treatment and heating being employed for poorly-soluble substances. In an amount of 1 to 100 μg/cm^2, the dissolved test substance is placed in the centre of the filter paper on a quadrant or circular area of ca. 2.4 cm^2 radius. 4 of the 6 wells are filled with different test substances or with the same test substance in different dilutions (e.g. 1, 3.2, 5, 10 and 20 μg/cm^2). The 5th well is treated with DEET (N,N-diethyl-m-toluamide) as standard substance. The 6th well is filled with the pure solvent and serves as a control. 60 to 100 larvae or 25 to 50 nymphs or 10 to 25 adults of the parasite to be tested, e.g. ticks, are added to each filter paper, and the system is covered with a pane of glass and positioned under a video camera. At intervals of 5 seconds, the video camera takes individual pictures of all 6 wells. For a qualitative evaluation, these images are observed in a time-lapse as a continuous film, optically following the movements of the parasites on the filter paper and comparing them with the movements in the control well no. 6 or with the standard in the 5th well. A qualitative observation is thus made as to whether the test parasites move evenly over the whole surface of the filter paper and ignore the test substance, or whether and over what period they avoid the treated zone, and what influence the dilution of the test substance has on the behaviour of the test parasites. In this way, neutral and repellent substances are determined. At the same time, the duration of activity of the test substance is determined and compared with that of the standard. […] This frequency is evaluated statistically and thus quantitatively by the Willcoxon method in a comparison with the control and with the standard. […]

[2] = test system: Boophilus microplus Biarra (larvae); test: Arena test in vitro against Boophilus microplus Biarra (larvae); assay type: in vivo; settings: even up to a dilution of 3.2 μg/cm^2
Procedure: as §1

[3] = test system: Rhipicephalus sanguineus (nymphs); test: Arena test in vitro against Rhipicephalus sanguineus (nymphs); assay type: in vivo; settings: even up to a dilution of 3.2 μg/cm^2
Procedure: as §1

vermin = settings: cited from earlier work

Compound | repellent activity in arena test (ticks) | long-term activity against Amblyomma nymphs [1] | long-term activity against Boophilus larvae [2] | long-term activity against Rhipicephalus sanguineus nymphs [3] | time after which it has to be reapplied (volatilizes rather rapidly) (vermin)
Cc1ccc(C(O)C2CCC(C)(C)N2)c(C)c1 (stereo not drawn) [Compound 1.55, 2-[(1-[2,4-dimethylphenyl])(1-hydroxy)methyl]-5,5-dimethyl-pyrrolidine] | excellent activity | Particularly marked long-term activity | Particularly marked long-term activity | Particularly marked long-term activity | –
OC(c1ccccc1)C1CCCN1 (stereo not drawn) [Compound 1.31, 2-[(1-phenyl)(1-hydroxy)methyl]pyrrolidine] | – | Particularly marked long-term activity | Particularly marked long-term activity | Particularly marked long-term activity | –
OC(c1ccc(Cl)cc1)C1CCCN1 (stereo not drawn) [Compound 1.45, 2-[(1-[4-chorophenyl])(1-hydroxy)methyl]pyrrolidine] | excellent activity | Particularly marked long-term activity | Particularly marked long-term activity | Particularly marked long-term activity | –
CCN(CC)C(=O)c1cccc(C)c1 [DEET, N,N-diethyl-m-toluamide] | – | – | – | – | ca. 2 hours
